The results in this text go back to patent publication US20260098046A1, “RIFABUTIN ANALOGS FOR THE TREATMENT OF DISEASE” (BIOVERSYS AG, priority 2022, published 2026).

What all share (format): cell-based
Test [1] deals with S. aureus (UAMS-1625 strain). Nature of the test: MIC by broth microdilution (CLSI) against S. aureus. To be noted: Staphylococcus aureus, 20 h, read-out: In vitro activity (MIC) S. aureus. The method, then:
(§1) MIC values were determined by broth microdilution method according to the CLSI guideline. Unless otherwise mentioned, MIC against A. baumannii was performed in RPMI medium supplemented with 10% FCS. MIC against M. abscessus was performed in Middlebrook 7H9 broth supplemented with Middlebrook ADC growth supplement (10%). All other MIC were performed in standard cation adjusted Mueller Hinton broth, supplemented with Middlebrook ADC growth supplement (5%) for the slow growing mycobacteria (M. xenopi, M. kansasii and M. avium).
(§2) The following procedure applies to all species tested, except for M. xenopi. From a fresh culture plate (from overnight to several days depending on the bacteria), cells were resuspended in 0.9% (w/v) saline solution and bacterial inoculum was prepared in the respective testing medium with 5×10^5 CFU/mL. For M. xenopi, the inoculum was prepared from a fresh liquid culture (7H9+ADC). The appropriate volumes of a 10 mg/mL compound solution were directly dispensed in the 96-well assay plate using a digital dispenser to create two-fold dilution series from 32 to 0.002 μg/mL final concentration for A. baumannii and S. aureus; from 16 to 0.016 μg/mL for M. abscessus and M. avium; and from 1 to 6×10^−5 μg/mL for M. kansasii and M. xenopi. 100 μL of bacterial suspension was finally added to the compounds. Plates were covered and incubated without shaking at 35° C. for 20 hours for A. baumanii and S. aureus; at 30° C. for 4 days for M. abscessus; and at 37° C. for 7 days (at least) for M. kansasii (covered with aluminum foil to avoid light exposure), M. avium and M. xenopi. Every experiment contained an antibiotic as quality control. MIC was determined visually as the lowest concentration of a compound that prevents visible growth of the bacteria.
(§3) The in vitro activity of compounds described herein was determined against S. aureus (UAMS-1625 strain), A. baumannii (HUMC1 strain), M. abscessus (ATCC 19977), M. kansasii (ATCC12478), M. avium (ATCC25291), and M. xenopi (ATCC19250).

Test [2] deals with A. baumannii (HUMC1 strain). Nature of the test: MIC by broth microdilution (CLSI) against A. baumannii. Particulars: Acinetobacter baumannii, RPMI medium supplemented with 10% FCS, 35° C. for 20 hours, read-out: In vitro activity (MIC) A. baumannii. As for the experimental part: as §1, §2, §3
Test [3] relates to M. abscessus (ATCC 19977). The test can be described thus: MIC by broth microdilution (CLSI) against M. abscessus. Particulars: Mycobacteroides abscessus. As for the experimental part:
as §1, §2, §3

Test [4] has as its system M. kansasii (ATCC12478). Nature of the test: MIC by broth microdilution (CLSI) against M. kansasii. Particulars: Mycobacterium kansasii, 168 h, cation adjusted Mueller Hinton broth + ADC (5%), 37° C. for 7 days (at least), read-out: In vitro activity (MIC) M. kansasii. As for the experimental part: as §1, §2, §3
Test [5] deals with M. xenopi (ATCC19250). Nature of the test: MIC by broth microdilution (CLSI) against M. xenopi. To be noted: Mycobacterium xenopi, 168 h, cation adjusted Mueller Hinton broth + ADC (5%), 37° C. for 7 days (at least), read-out: In vitro activity (MIC) M. xenopi. As for the experimental part: as §1, §2, §3
Test [6] has as its system M. avium (ATCC25291). The test can be described thus: MIC by broth microdilution (CLSI) against M. avium. To be noted: Mycobacterium avium, 168 h, cation adjusted Mueller Hinton broth + ADC (5%), 37° C. for 7 days (at least), read-out: In vitro activity (MIC) M. avium. As for the experimental part:
as §1, §2, §3

[7] abbreviates: ATCC19977, 96 h, ATCC 19977, Middlebrook 7H9 broth + ADC (10%), 30° C. for 4 days, read-out: In vitro activity (MIC) M. abscessus.

Values after ≈ are worked out from the molar mass of the structure shown. Like-named read-outs stand apart in the source and are kept apart here. Where only a bound is given, the exact number is not on record here.

Consider `CO[C@H]1/C=C/O[C@@]2(C)Oc3c(C)c(O)c4c(c3C2=O)C2=NC3(CCN(CC(C)C)CC3)NC2=C(NC(=O)/C(C)=C\C=C\[C@H](C)[C@H](O)[C@@H](C)[C@@H](O)[C@@H](C)[C@H](OC(=O)Cn2cc(C3CCCCC3)nn2)[C@@H]1C)C4=O` [Compound 26], for which the MIC was found to be 0.125 µg/mL (≈ 0.125 µM) in test [1]; 0.016 µg/mL (≈ 0.0161 µM) in test [2]; 0.25 µg/mL in test [3] (setting [7]); 0.002 µg/mL in test [4]; 0.03 µg/mL in test [5]; 0.03 µg/mL in test [6].
Turning to `CO[C@H]1/C=C/O[C@@]2(C)Oc3c(C)c(O)c4c(c3C2=O)C2=NC3(CCN(CC(C)C)CC3)NC2=C(NC(=O)/C(C)=C\C=C\[C@H](C)[C@H](O)[C@@H](C)[C@@H](O)[C@@H](C)[C@H](OC(C)=O)[C@@H]1C)C4=O` [Rifabutin, rifabutin], the MIC is 0.016 µg/mL (≈ 0.0189 µM) in test [1]; at most 0.002 µg/mL in test [2]; 8 µg/mL in test [3] (setting [7]); 8 µg/mL (≈ 9.44 µM) in test [3] (ATCC19977, tested M. abscessus strains, read-out: MIC value on M. abscessus); 0.001 µg/mL in test [4]; 0.03 µg/mL in test [5]. Further, the MIC in test [6] is 0.125 µg/mL.
As to `CO[C@H]1/C=C/O[C@@]2(C)Oc3c(C)c(O)c4c(c3C2=O)C2=NC3(CCN(CC(C)C)CC3)NC2=C(NC(=O)/C(C)=C\C=C\[C@H](C)[C@H](O)[C@@H](C)[C@@H](O)[C@@H](C)[C@H](OC(=O)Cn2cc(-c3ccccn3)nn2)[C@@H]1C)C4=O` [Compound 8], the MIC in test [1] is 0.03 µg/mL (≈ 0.0303 µM); in test [2], at most 0.002 µg/mL; in test [3] (setting [7]), 0.25 µg/mL; in test [4], 0.004 µg/mL; in test [5], 0.06 µg/mL; in test [6] it was 0.06 µg/mL.
Take `COc1ccc2cc(-c3cn(CC(=O)O[C@H]4[C@H](C)[C@H](O)[C@H](C)[C@@H](O)[C@@H](C)/C=C/C=C(/C)C(=O)NC5=C6NC7(CCN(CC(C)C)CC7)N=C6c6c(c(O)c(C)c7c6C(=O)[C@@](C)(O/C=C/[C@H](OC)[C@H]4C)O7)C5=O)nn3)ccc2c1` [Compound 6]: the MIC in test [1] worked out at 8 µg/mL (≈ 7.47 µM); in test [2], 1 µg/mL (≈ 0.934 µM); in test [3] (setting [7]) it was 0.25 µg/mL; in test [4], 0.002 µg/mL; in test [5], 0.03 µg/mL; in test [6], 0.06 µg/mL.
As for `CO[C@H]1/C=C/O[C@@]2(C)Oc3c(C)c(O)c4c(c3C2=O)C2=NC3(CCN(CC(C)C)CC3)NC2=C(NC(=O)/C(C)=C\C=C\[C@H](C)[C@H](O)[C@@H](C)[C@@H](O)[C@@H](C)[C@H](OC(=O)Cn2cc(-c3ccc([N+](=O)[O-])cc3)nn2)[C@@H]1C)C4=O` [Compound 4], the MIC worked out at 0.5 µg/mL (≈ 0.483 µM) in test [1]; 0.125 µg/mL (≈ 0.121 µM) in test [2]; 0.125 µg/mL in test [3] (setting [7]); 0.002 µg/mL in test [4]; 0.03 µg/mL in test [5]; 0.03 µg/mL in test [6].
`COc1ccc(-c2cn(CC(=O)O[C@H]3[C@H](C)[C@H](O)[C@H](C)[C@@H](O)[C@@H](C)/C=C/C=C(/C)C(=O)NC4=C5NC6(CCN(CC(C)C)CC6)N=C5c5c(c(O)c(C)c6c5C(=O)[C@@](C)(O/C=C/[C@H](OC)[C@H]3C)O6)C4=O)nn2)cc1` [Compound 2]: the MIC in test [1] stood at 0.125 µg/mL (≈ 0.123 µM); in test [2], 0.016 µg/mL (≈ 0.0157 µM); in test [3] (setting [7]) it was 0.25 µg/mL; in test [4], 0.002 µg/mL; in test [5], 0.125 µg/mL; in test [6], 0.06 µg/mL.
